The numbers were not newly measured in patent publication US8216495B2, “Preparation method for solid dispersions” (Formac Pharmaceuticals N.V., priority 2008, dated 2012), which cites them from elsewhere.

Values after ≈ are worked out from the molar mass of the structure shown. A value given as a limit tells only on which side of the number the result lay.

Test in data set [1]: not given
This is another data set of the same source.

For data set [2] the following is noted: weak base.

In the case of `NC(=O)N1c2ccccc2C=Cc2ccccc21` [Carbamazepine, 5H-dibenz[b,f]azepine-5-carboxamide], the solubility in water result is listed as “practically insoluble”. Moreover, the “solubility in alcohol and acetone” value (alcohol and acetone) was “soluble”.
Regarding `C#C[C@]1(O)CC[C@H]2[C@@H]3CCC4=Cc5oncc5C[C@]4(C)[C@H]3CC[C@@]21C` [Danazol, 17a-Pregna-2,4-dien-20-yno[2,3-d]-isoxazol-17-ol], in data set [1] (danazol administered orally), the half-life – broadly, how long it takes for the measured level to halve – is 4 to 5 h; the “increase in plasma concentration on doubling the dose” value is on record as 30-40%; the “time of peak concentrations” value was no more than 2 h.
`CCC(C)n1ncn(-c2ccc(N3CCN(c4ccc(OCC5COC(Cn6cncn6)(c6ccc(Cl)cc6Cl)O5)cc4)CC3)cc2)c1=O` (stereo not drawn) [Itraconazole]: the aqueous solubility (commonly how much of the substance goes into solution per volume) (pH=1) was 4 µg/mL (≈ 5.67 µM). The pKa (usually the pH at which an ionisable group is half protonated) in data set [2] is reported as 4.0.
On to `CC(=O)O[C@H]1C(=O)[C@@]2(C)[C@H]([C@H](OC(=O)c3ccccc3)[C@]3(O)C[C@H](OC(=O)[C@H](O)[C@@H](NC(=O)c4ccccc4)c4ccccc4)C(C)=C1C3(C)C)[C@]1(OC(C)=O)CO[C@@H]1C[C@@H]2O` [Paclitaxel], for which the solubility in water result is on record as “insoluble”.
For the compound `C=CC[C@@H]1/C=C(\C)C[C@H](C)C[C@H](OC)[C@H]2O[C@@](O)(C(=O)C(=O)N3CCCC[C@H]3C(=O)O[C@H](/C(C)=C/[C@@H]3CC[C@@H](O)[C@H](OC)C3)[C@H](C)[C@@H](O)CC1=O)[C@H](C)C[C@@H]2OC` [Tacrolimus], the solubility in water result is listed as “practically insoluble”. For the setting “ethanol”, the solubility in ethanol entry is listed as “freely soluble”. Also, where the note is “methanol and chloroform”, the “solubility in methanol and chloroform” value is on record as “very soluble”. Besides, the absolute bioavailability entry in data set [1] (5 mg dose taken twice a day, oral) is “approximately 17%”.
